From patent publication US10201556B2, “Combination for use in treating diseases or conditions associated with melanoma, or treating diseases or conditions associated with activated B-raf pathway” (InteRNA Technologies B.V., priority 2012, dated 2019)

How the values were obtained:
M233 melanoma cell line = conditions: M233; value marked with footnote 1) Atefi M. et al.; cited from earlier work
M376 melanoma cell line = conditions: M376; value marked with footnote 1) Atefi M. et al.; cited from earlier work
A2058 melanoma cell line = test: Anti-proliferative effect of small molecules, MTS assay; assay type: cell-based; conditions: Homo sapiens, A2058, intrinsic resistance, 72 hours
Method: (§1) The anti-proliferative effect of small molecules in melanoma cell lines was determined with V600E BRAF inhibitor, vemurafenib (PLX-4032, 51267, Selleck) and MEK inhibitor, selumetinib (AZD-6244, S1008, Selleck). For each cell line optimal growth conditions were determined prior to the experiment. Cells were plated in a 96-well plate at 3000 cells per well (100 uL) and were grown at 37 C, 5% CO2. Small molecule mix (50 uL per well) was made for each concentration in medium. Cells were treated in triplicate 24 hours after plating. After 72 hours medium was replaced and viability was measured with the MTS assay (Promega) according to manufacturer's instructions. Cell viability inhibition is normalized against loading control (0.1% DMSO) and GraphPad Prism was used to fit the curve and calculate GI50 values.

[1] = system: M249-R4 melanoma cell line; test: as above; assay type: cell-based; conditions: M249-R4 (M249-AR4), in vitro acquired resistance, 72 hours
Method: as §1

M249 melanoma cell line = test: as above; assay type: cell-based; conditions: M249, 72 h, M249, vemurafenib sensitive
Method: as §1

[2] = system: A375Hu melanoma cell line; test: as above; assay type: cell-based; conditions: Homo sapiens, A-375, 72 h, A375Hu (A375), vemurafenib sensitive
Method: as §1

[3] = system: RPMI-7951 melanoma cell line; test: as above; assay type: cell-based; conditions: Homo sapiens; RPMI-7951, intrinsic resistance; 72 hours, MTS
Method: as §1

[4] = system: A375Hu-R1 (vemurafenib resistant clone of A375Hu); test: as above; assay type: cell-based; conditions: Homo sapiens, A375Hu-R1 (A375-R), in vitro acquired resistance, 72 hours
Method: as §1
The A375Hu melanoma cell line was used to make a vemurafenib (PLX-4032) resistant sub line. A375Hu cells were plated at low density in 96-well plates and exposed to 1 uM PLX-4032. Cell growth was monitored until clonal growth was observed. Wells with clonal growth (approximately 5%) were replated in a 96-well plate and exposed to 1 uM PLX-4032. The 10 best growing clones were replated in 6-well plates in 1 uM PLX-4032 and the three best growing clones were used for further culturing. Clone number 1 (A375Hu-R1) grew best with 1 uM PLX-4032 and was chosen for additional experiments.

[5] = system: SKMEL-57 melanoma cell line; test: as above; assay type: cell-based; conditions: SKMEL-57, vemurafenib sensitive
Method: as §1
A375 cells were obtained from the Hubrecht Institute (Utrecht, The Netherlands); SKMEL-28, A2058 and RPMI-7951 were from the ATCC; SKMEL-57 was a gift from Dr. Patricia Groenen (Radboud University Nijmegen Medical Centre, The Netherlands); for cell line characteristics of M249, M249-AR4, M233 and M376 see (Atefi et al. 2011). A375-R, with in vitro acquired resistance to vemurafenib, was established in our lab by clonal selection of cells continually exposed to 1 μM vemurafenib. A375, A375-R, SKMEL-28, A2058 and SKMEL-57 were grown in DMEM GlutaMAX™-I (Gibco®), all other cell lines in RPMI-1640 (Gibco®). Media was supplemented with 10% FBS (Sigma), and cells were maintained in a humidified 37° C. incubator (Thermo Scientific) with 5% CO2. Vemurafenib (PLX4032; Selleck Chemicals) was diluted in DMSO to a stock concentration of 10 mM.

SMILES: Cn1cnc2c(F)c(Nc3ccc(Br)cc3Cl)c(C(=O)NOCCO)cc21 [Selumetinib, 6-(4-bromo-2-chlorophenylamino)-7-fluoro-N-(2-hydroxyethoxy)-3-methyl-3H-benzo[d]imidazole-5-carboxamide]
- GI50 (M233 melanoma cell line): > 10000 nM
- GI50 (M376 melanoma cell line): 1000 nM
- GI50 (A2058 melanoma cell line): > 10000 nM
- GI50 [1]: 2910 nM
- GI50 (M249 melanoma cell line): 100 nM
- GI50 [2]: 50 nM
- GI50 [3]: > 10000 nM
- GI50 [4]: > 10000 nM
- GI50 [5]: 700 nM
